Assay results from patent publication EP4603105A1, “PHARMACEUTICAL COMPOSITION CONTAINING CYCLIC COMPOUND HAVING SELECTIVE KRAS INHIBITORY EFFECT AGAINST HRAS AND NRAS” (CHUGAI SEIYAKU KABUSHIKI KAISHA, priority 2022, dated 2024).
*1 amine or outer side, *2 acyl side, *3 side chain or, on linkers, in order; H or OH if unused. Where a SMILES comes first, the peptide text is derived from it. Bridges are numbered along the chain shown (N, C = ends). [ ]: non-standard residue; d: D form. The star is where a group is joined. hPhe(3-Cl-4-CF3) = N[C@@H](CCc1ccc(C(F)(F)F)c(Cl)c1)C(=O)O; X19 = O=C([C@H](Cc1ccc(C(F)(F)F)cc1)N(CCCF)[*:1])[*:2]; NPrPhe(4-CF3) = CCCN[C@@H](Cc1ccc(C(F)(F)F)cc1)C(=O)O; X30 = CCN([C@H](C(=O)[*:2])C1CCCC1)[*:1]; NMeGly(cPent) = CN[C@H](C(=O)O)C1CCCC1; Hyp = O=C(O)[C@@H]1C[C@@H](O)CN1; NMeD = CN[C@@H](CC(=O)O)C(=O)O; NMeL = CN[C@@H](CC(C)C)C(=O)O; Morpholide = C1CN(*)CCO1; NMeA = CN[C@@H](C)C(=O)O; Ac5c = NC1(C(=O)O)CCCC1; Aze = O=C(O)[C@@H]1CCN1; Ac4c = NC1(C(=O)O)CCC1; Sar = CNCC(=O)O

How the values were obtained:
[1] = target: GDP-bound NRAS wild-type protein (Homo sapiens, UniProt P01111); assay: Binding to NRAS by surface plasmon resonance (SPR), KD and KD ratio to KRAS
Sequence of GDP-bound NRAS wild-type protein (P01111 whole entry): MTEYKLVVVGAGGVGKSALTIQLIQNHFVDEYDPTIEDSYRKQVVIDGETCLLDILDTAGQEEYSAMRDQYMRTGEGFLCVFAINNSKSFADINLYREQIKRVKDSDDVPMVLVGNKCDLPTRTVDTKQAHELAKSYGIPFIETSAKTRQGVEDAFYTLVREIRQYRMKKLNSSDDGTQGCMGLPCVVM
How it was run: (§1)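 Measured at 30°C: SPR with GDP-loaded, E. coli-expressed biotin-Avi RAS captured (~100–300 RU), ascending 75 s compound injections, HBS pH 7.4 with GDP, MgCl2, 4% DMSO. KD from 1:1 fit.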

HRAS wild-type protein = HRAS wild-type protein (Homo sapiens, UniProt P01112); assay: Binding to HRAS by surface plasmon resonance (SPR), KD and KD ratio to KRAS
Sequence of HRAS wild-type protein (P01112 whole entry): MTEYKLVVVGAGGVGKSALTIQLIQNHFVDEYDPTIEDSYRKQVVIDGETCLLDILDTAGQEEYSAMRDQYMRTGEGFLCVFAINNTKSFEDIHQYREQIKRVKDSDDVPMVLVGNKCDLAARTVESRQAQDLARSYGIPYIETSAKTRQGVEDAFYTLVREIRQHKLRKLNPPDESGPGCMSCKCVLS
How it was run: as §1

[2] = test system: human lung cancer strain NCI-H441; assay type: cell-based
How it was run: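 Signal came from […] measured per well once the reagent was added. Beforehand, cells were cultured at 37°C and 5% carbon dioxide on a compound series serially diluted in dimethyl sulfoxide.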

[3] = ratio of the KD value with respect to GDP-bound NRAS wild-type protein to the KD value with respect to KRAS
[4] = ratio of the KD value with respect to HRAS wild-type protein to the KD value with respect to KRAS
[5] = ratio of KD value for GDP-bound NRAS wild-type protein to KD value for KRAS (SPR)
[6] = ratio of KD value for HRAS wild-type protein to KD value for KRAS (SPR)
[7] = ratio of KD for GDP-bound NRAS wild-type protein to KD for KRAS
[8] = ratio of KD for HRAS wild-type protein to KD for KRAS

SMILES	NRAS /KRAS [1, 3]	HRAS /KRAS (HRAS wild-type protein; [4])	IC50 [2] [nM]	NRAS /KRAS [1, 5]	HRAS /KRAS (HRAS wild-type protein; [6])	NRAS /KRAS [1, 7]	HRAS /KRAS (HRAS wild-type protein; [8])
CCCN1C(=O)[C@@H]2CCN2C(=O)CN(C)C(=O)[C@H]([C@@H](C)CC)NC(=O)[C@H](CC(C)C)N(C)C(=O)C[C@@H](C(=O)N2CCOCC2)N(C)C(=O)[C@H](C2CCCC2)N(C)C(=O)C2(CCC2)NC(=O)[C@@H]2C[C@@H](OCC)CN2C(=O)[C@H](CCc2ccc(C(F)(F)F)c(Cl)c2)NC(=O)CN(C)C(=O)[C@@H]1Cc1ccc(C(F)(F)F)cc1 [PP0411] ([NMeL]I[Sar][Aze][NPrPhe(4-CF3)][Sar][hPhe(3-Cl-4-CF3)][Hyp](Et)[Ac4c][NMeGly(cPent)][NMeD]-Morpholide; lactam N-11)	C (A compound having a KD ratio of 0.1 or more and less than 3 is denoted as C)	C (A compound having a KD ratio of 0.1 or more and less than 3 is denoted as C)	2.8	–	–	–	–
CC[C@H](C)[C@@H]1NC(=O)[C@H](CC)N(C)C(=O)C[C@@H](C(=O)N(C)C)N(C)C(=O)[C@H](C2CCCC2)N(C)C(=O)C2(CCCC2)N(C)C(=O)[C@@H]2CCCN2C(=O)[C@H](CCc2cc(F)c(C(F)(F)F)c(F)c2)NC(=O)CN(C)C(=O)[C@H](Cc2ccc(C)cc2)N2CC/C=C\C[C@@H](C2=O)N(C)C(=O)CN(C)C1=O [PP1807]	–	–	5	A (a compound having 10 or more and less than 20 is denoted as A)	B (a compound having 3 or more and less than 10 is denoted as B)	–	–
CC[C@H](C)[C@@H]1NC(=O)[C@H](CC(C)C)N(C)C(=O)C[C@@H](C(=O)N2CCOCC2)N(C)C(=O)[C@H](C2CCCC2)N(C)C(=O)C2(CCCC2)NC(=O)[C@@H]2CCCN2C(=O)[C@H](CCc2ccc(C(F)(F)F)c(Cl)c2)NC(=O)CN(C)C(=O)[C@H](Cc2ccc(C(F)(F)F)cc2)N(CCCF)C(=O)CN(C)C(=O)CN(C)C1=O [PP0524] ([NMeL]I[Sar][Sar][X19][Sar][hPhe(3-Cl-4-CF3)]P[Ac5c][NMeGly(cPent)][NMeD]-Morpholide; lactam N-11)	B (a compound having 3 or more and less than 10 is denoted as B)	C (A compound having a KD ratio of 0.1 or more and less than 3 is denoted as C)	4.8	–	–	–	–
CC[C@H](C)[C@@H]1NC(=O)[C@H](CC(C)C)N(C)C(=O)C[C@@H](C(=O)N2CCOCC2)N(C)C(=O)[C@H](C2CCCC2)N(C)C(=O)C2(CCCC2)NC(=O)[C@@H]2CCCN2C(=O)[C@H](CCc2ccc(C(F)(F)F)c(Cl)c2)NC(=O)CN(C)C(=O)[C@H](C2CCCC2)N(CC)C(=O)[C@@H]2CCN2C(=O)[C@H](C)N(C)C1=O [PP0003] ([NMeL]I[NMeA][Aze][X30][Sar][hPhe(3-Cl-4-CF3)]P[Ac5c][NMeGly(cPent)][NMeD]-Morpholide; lactam N-11)	–	–	41.4	–	–	C (A compound having a KD ratio of 0.1 or more and less than 3 is denoted as C)	C (A compound having a KD ratio of 0.1 or more and less than 3 is denoted as C)
CCCN1C(=O)CN(C)C(=O)CNC(=O)[C@H]([C@@H](C)CC)NC(=O)[C@H](CC(C)C)N(C)C(=O)C[C@@H](C(=O)N(C)C)NC(=O)[C@H](C2CCCC2)N(C)C(=O)C2(CCC2)NC(=O)[C@@H]2CCCN2C(=O)[C@H](CCc2ccc(C(F)(F)F)c(Cl)c2)NC(=O)CN(C)C(=O)[C@@H]1Cc1ccc(C(F)(F)F)cc1 [PP0362] ([NMeL]IG[Sar][NPrPhe(4-CF3)][Sar][hPhe(3-Cl-4-CF3)]P[Ac4c][NMeGly(cPent)]D-NMe2; lactam N-11)	–	–	149	–	–	B (a compound having 3 or more and less than 10 is denoted as B)	B (a compound having 3 or more and less than 10 is denoted as B)
CCO[C@@H]1C[C@H]2C(=O)NC3(CC(C)(C)C3)C(=O)N(C)[C@@H](C(CC)CC)C(=O)N(C)[C@H](C(=O)N(C)C)CC(=O)N(C)[C@@H](C(C)C)C(=O)N[C@@H]([C@@H](C)CC)C(=O)N(C)CC(=O)N(C)[C@H]3C/C=C\CCN(C3=O)[C@@H](Cc3ccc(C(F)(F)F)cc3)C(=O)N(C)CC(=O)N[C@@H](CCc3ccc(Cl)c(Cl)c3)C(=O)N2C1 [PP2181]	AA (a compound having 20 or more is denoted as AA)	A (a compound having 10 or more and less than 20 is denoted as A)	40.3	–	–	–	–
CC[C@H](C)[C@@H]1NC(=O)[C@H](CC(C)C)N(C)C(=O)C[C@@H](C(=O)N2CCOCC2)N(C)C(=O)[C@H](C2CCCC2)N(CC)C(=O)C2(CCCC2)NC(=O)[C@@H]2CCCN2C(=O)[C@H](CCc2cc(F)c(C(F)(F)F)c(F)c2)NC(=O)CN(C)C(=O)[C@H](Cc2ccc(C(F)(F)F)cc2)N2CCCC[C@@H](C2=O)N(C)C(=O)CN(C)C1=O [PP0538]	B (a compound having 3 or more and less than 10 is denoted as B)	B (a compound having 3 or more and less than 10 is denoted as B)	78	–	–	–	–
CCO[C@@H]1C[C@H]2C(=O)NC3(CCC3)C(=O)N(C)[C@@H](C3CCCC3)C(=O)N(C)[C@H](C(=O)N3CCOCC3)CC(=O)N(C)[C@@H](COC)C(=O)N[C@@H]([C@@H](C)CC)C(=O)N(C)CC(=O)N(C)[C@H]3CCCCCN(C3=O)[C@@H](Cc3ccc(C(F)(F)F)cc3)C(=O)N(C)CC(=O)N[C@@H](CCc3ccc(C(F)(F)F)c(F)c3)C(=O)N2C1 [PP0848]	–	–	37.5	–	–	B (a compound having 3 or more and less than 10 is denoted as B)	B (a compound having 3 or more and less than 10 is denoted as B)
CCO[C@@H]1C[C@H]2C(=O)NC3(CCC3)C(=O)N(C)[C@@H](C(CC)CC)C(=O)N(C)[C@H](C(=O)N3CCCC3)CC(=O)N(C)[C@H]3CCC/C=C/c4ccc(cc4)C[C@@H](C(=O)N(C)CC(=O)N[C@@H](CCc4cc(F)c(C(F)(F)F)c(F)c4)C(=O)N2C1)N1CC/C=C\C[C@@H](C1=O)N(C)C(=O)CN(C1CC1)C(=O)[C@H]([C@@H](C)CC)NC3=O [PP2957]	–	–	4.6	–	–	AA (a compound having 20 or more is denoted as AA)	A (a compound having 10 or more and less than 20 is denoted as A)
CCC[C@H]1C(=O)N[C@@H]([C@@H](C)CC)C(=O)N(C)CC(=O)N(C)[C@H]2C/C=C\CCN(C2=O)[C@@H](Cc2ccc(C(F)(F)F)cc2)C(=O)N(C)CC(=O)N[C@@H](CCc2cc(Cl)c3sccc3c2)C(=O)N2C[C@H](OCC)C[C@H]2C(=O)NC2(CC(C)(C)C2)C(=O)N(C)[C@@H](C2CCCC2)C(=O)N(C)[C@H](C(=O)N(C)C)CC(=O)N1C [PP2946]	–	–	5.3	–	–	A (a compound having 10 or more and less than 20 is denoted as A)	A (a compound having 10 or more and less than 20 is denoted as A)
CCO[C@@H]1C[C@H]2C(=O)NC3(CCC3)C(=O)N(C)[C@@H](C3CCCC3)C(=O)N(C)[C@H](C(=O)N3CCOCC3)CC(=O)N(C)[C@@H](COC)C(=O)N[C@@H]([C@@H](C)CC)C(=O)N(C)CC(=O)N(C)[C@H]3CCCCCN(C3=O)[C@@H](Cc3ccc(C(F)(F)F)cc3)C(=O)N(C)CC(=O)N[C@@H](CCc3ccc(C)cc3)C(=O)N2C1 [PP0850]	–	–	3090	–	–	B (a compound having 3 or more and less than 10 is denoted as B)	B (a compound having 3 or more and less than 10 is denoted as B)
CC[C@H](C)[C@@H]1NC(=O)[C@H](CC(C)C)N(C)C(=O)C[C@@H](C(=O)N2CCOCC2)N(C)C(=O)[C@H](C2CCCC2)N(C)C(=O)C2(CCOCC2)NC(=O)[C@@H]2CCCN2C(=O)[C@H](CCc2cc(F)c(C(F)(F)F)c(F)c2)NC(=O)CN(C)C(=O)[C@H](Cc2ccc(C(F)(F)F)cc2)N2CCCC[C@@H](C2=O)N(C)C(=O)CN(C)C1=O [PP0564]	B (a compound having 3 or more and less than 10 is denoted as B)	B (a compound having 3 or more and less than 10 is denoted as B)	18.4	–	–	–	–
CCC[C@H]1C(=O)N[C@@H]([C@@H](C)CC)C(=O)N(C)CC(=O)N(C)[C@H]2C/C=C\CCN(C2=O)[C@@H](Cc2ccc(C(F)(F)F)cc2)C(=O)N(C)CC(=O)N[C@@H](CCc2ccc(C(F)(F)F)c(OC)c2)C(=O)N2C[C@H](OCC)C[C@H]2C(=O)NC2(CC(C)(C)C2)C(=O)N(C)[C@@H](C2CCCC2)C(=O)N(C)[C@H](C(=O)N(C)C)CC(=O)N1C [PP1560]	–	–	1.8	A (a compound having 10 or more and less than 20 is denoted as A)	B (a compound having 3 or more and less than 10 is denoted as B)	–	–
CC[C@H](C)[C@@H]1NC(=O)[C@H](CC2CC2)N(C)C(=O)C[C@@H](C(=O)N2CCCC2)N(C)C(=O)[C@H](C2CCCC2)N(C)C(=O)C2(CCC2)NC(=O)[C@@H]2C[C@H](C)CN2C(=O)[C@H](CCc2cc(F)c(C(F)(F)F)c(F)c2)NC(=O)CN(C)C(=O)[C@H](Cc2ccc(C(F)(F)F)cc2)N2CC/C=C\C[C@@H](C2=O)N(C)C(=O)CN(C)C1=O [PP1510]	–	–	34.5	AA (a compound having 20 or more is denoted as AA)	A (a compound having 10 or more and less than 20 is denoted as A)	–	–
CCCN1C(=O)[C@@H]2CCN2C(=O)[C@H](C)N(C)C(=O)[C@H]([C@@H](C)CC)NC(=O)[C@H](CC(C)C)N(C)C(=O)C[C@@H](C(=O)N(C)C)NC(=O)[C@H](C2CCCC2)N(C)C(=O)C2(CCCC2)NC(=O)[C@@H]2C[C@@H](OCC)CN2C(=O)[C@H](CCc2ccc(C(F)(F)F)c(Cl)c2)NC(=O)CN(C)C(=O)[C@@H]1Cc1ccc(C(F)(F)F)cc1 [PP0383] ([NMeL]I[NMeA][Aze][NPrPhe(4-CF3)][Sar][hPhe(3-Cl-4-CF3)][Hyp](Et)[Ac5c][NMeGly(cPent)]D-NMe2; lactam N-11)	–	–	2.6	–	–	C (A compound having a KD ratio of 0.1 or more and less than 3 is denoted as C)	B (a compound having 3 or more and less than 10 is denoted as B)
